From ChEMBL document CHEMBL1201862, “PubChem BioAssay data set” (2004)
Active and inactive are the calls of the source.

Legend:
[1] = biological target: Luciferin 4-monooxygenase (Photinus pyralis, UniProt P08659); assay: firefly luciferase enzyme inhibitors, dose response, biochemical, luminescence (AID 1891)
[2] = Luminescence Cell-Based Dose Confirmation HTS to Identify Inhibitors of Platelet Dense Granule Release. [Related pubchem assays: 1663 (Primary HTS), 1678 (Summary of Project)]; assay type: functional
[3] = biological target: Beta-galactosidase (Escherichia coli, UniProt Q8VNN2); assay: Dose response counterscreen for EBI2 assay utilizing the enzyme, b-galactosidase.; assay type: functional
Chain of Beta-galactosidase (Q8VNN2 whole entry): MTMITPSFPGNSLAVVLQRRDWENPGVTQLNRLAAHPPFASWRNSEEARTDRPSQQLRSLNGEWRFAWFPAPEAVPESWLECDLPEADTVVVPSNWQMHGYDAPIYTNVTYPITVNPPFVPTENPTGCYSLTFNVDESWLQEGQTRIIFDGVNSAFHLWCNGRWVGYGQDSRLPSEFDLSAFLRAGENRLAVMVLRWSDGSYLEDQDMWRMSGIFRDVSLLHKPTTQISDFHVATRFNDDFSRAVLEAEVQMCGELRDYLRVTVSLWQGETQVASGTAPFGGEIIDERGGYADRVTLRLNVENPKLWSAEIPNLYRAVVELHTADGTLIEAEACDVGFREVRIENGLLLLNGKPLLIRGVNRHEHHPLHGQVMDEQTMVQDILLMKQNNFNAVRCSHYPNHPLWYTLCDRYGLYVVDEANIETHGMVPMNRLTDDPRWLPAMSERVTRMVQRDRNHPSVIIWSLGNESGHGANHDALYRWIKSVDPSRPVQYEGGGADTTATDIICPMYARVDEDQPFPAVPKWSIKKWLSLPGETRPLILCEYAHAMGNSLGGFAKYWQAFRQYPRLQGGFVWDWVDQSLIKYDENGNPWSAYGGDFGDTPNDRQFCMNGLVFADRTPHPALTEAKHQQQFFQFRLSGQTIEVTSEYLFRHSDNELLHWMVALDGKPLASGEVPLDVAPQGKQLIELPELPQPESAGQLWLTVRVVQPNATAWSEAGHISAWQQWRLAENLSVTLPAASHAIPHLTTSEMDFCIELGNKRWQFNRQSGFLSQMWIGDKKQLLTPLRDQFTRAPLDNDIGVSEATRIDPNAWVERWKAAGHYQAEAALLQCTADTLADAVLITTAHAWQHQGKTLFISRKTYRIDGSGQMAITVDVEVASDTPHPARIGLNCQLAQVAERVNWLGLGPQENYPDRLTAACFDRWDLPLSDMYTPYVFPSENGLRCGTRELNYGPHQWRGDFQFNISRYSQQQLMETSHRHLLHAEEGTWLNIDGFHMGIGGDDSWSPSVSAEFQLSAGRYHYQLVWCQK

[4] = biological target: Glyceraldehyde-3-phosphate dehydrogenase (Homo sapiens, UniProt P04406)
Chain of Glyceraldehyde-3-phosphate dehydrogenase (P04406 whole entry): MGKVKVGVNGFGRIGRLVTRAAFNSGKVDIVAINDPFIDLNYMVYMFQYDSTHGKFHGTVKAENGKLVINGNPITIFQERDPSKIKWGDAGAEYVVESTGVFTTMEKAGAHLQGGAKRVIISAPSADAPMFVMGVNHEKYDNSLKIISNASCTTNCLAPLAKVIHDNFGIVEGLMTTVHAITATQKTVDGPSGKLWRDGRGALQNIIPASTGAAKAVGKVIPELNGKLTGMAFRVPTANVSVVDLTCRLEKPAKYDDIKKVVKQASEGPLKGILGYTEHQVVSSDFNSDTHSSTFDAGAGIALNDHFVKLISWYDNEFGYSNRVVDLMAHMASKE

[5] = biological target: T1, Bcl-2-related protein A1 (Mus musculus, UniProt Q07440); assay: Bfl-1 inhibitors blocking BH3 peptide binding, confirmation, biochemical, TR-FRET, mouse Bfl-1 (AID 621);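 note: TR-FRET binding of GST-Bfl-1 to FITC-labelled Bid peptide via terbium antibody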
T1 sequence (Q07440 whole entry): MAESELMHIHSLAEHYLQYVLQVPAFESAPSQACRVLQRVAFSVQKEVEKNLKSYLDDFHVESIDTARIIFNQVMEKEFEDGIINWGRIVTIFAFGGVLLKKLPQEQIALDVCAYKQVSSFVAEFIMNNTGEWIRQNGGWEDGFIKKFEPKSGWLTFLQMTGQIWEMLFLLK

[6] = biological target: T1, Bcl-2-related protein A1; assay: Bfl-1 binding inhibitors, SAR follow-up, biochemical, fluorescence polarization (AID 1070)
[7] = biological target: Cytochrome P450 3A4 (Homo sapiens, UniProt P08684);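 note: CYP3A4 tested as one member of a cytochrome P450 panel screen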
Chain of Cytochrome P450 3A4 (P08684 whole entry): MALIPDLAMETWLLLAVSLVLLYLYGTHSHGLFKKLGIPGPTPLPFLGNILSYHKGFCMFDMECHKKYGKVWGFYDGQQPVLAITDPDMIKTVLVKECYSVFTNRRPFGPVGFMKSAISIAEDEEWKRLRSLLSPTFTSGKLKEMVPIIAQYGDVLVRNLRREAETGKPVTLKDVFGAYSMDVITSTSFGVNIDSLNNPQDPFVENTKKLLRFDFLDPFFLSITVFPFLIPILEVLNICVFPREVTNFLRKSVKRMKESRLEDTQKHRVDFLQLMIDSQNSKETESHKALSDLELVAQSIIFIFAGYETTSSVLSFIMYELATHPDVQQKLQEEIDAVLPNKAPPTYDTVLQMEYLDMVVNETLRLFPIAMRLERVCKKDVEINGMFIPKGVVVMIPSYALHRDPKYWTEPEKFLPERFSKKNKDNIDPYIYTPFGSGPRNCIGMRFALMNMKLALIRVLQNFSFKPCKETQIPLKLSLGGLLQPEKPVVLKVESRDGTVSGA

[8] = biological target: T2, Cytochrome P450 1A2 (Homo sapiens, UniProt P05177);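 note: PubChem cytochrome P450 panel assay, CYP1A2 panel member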
T2 sequence (P05177 whole entry): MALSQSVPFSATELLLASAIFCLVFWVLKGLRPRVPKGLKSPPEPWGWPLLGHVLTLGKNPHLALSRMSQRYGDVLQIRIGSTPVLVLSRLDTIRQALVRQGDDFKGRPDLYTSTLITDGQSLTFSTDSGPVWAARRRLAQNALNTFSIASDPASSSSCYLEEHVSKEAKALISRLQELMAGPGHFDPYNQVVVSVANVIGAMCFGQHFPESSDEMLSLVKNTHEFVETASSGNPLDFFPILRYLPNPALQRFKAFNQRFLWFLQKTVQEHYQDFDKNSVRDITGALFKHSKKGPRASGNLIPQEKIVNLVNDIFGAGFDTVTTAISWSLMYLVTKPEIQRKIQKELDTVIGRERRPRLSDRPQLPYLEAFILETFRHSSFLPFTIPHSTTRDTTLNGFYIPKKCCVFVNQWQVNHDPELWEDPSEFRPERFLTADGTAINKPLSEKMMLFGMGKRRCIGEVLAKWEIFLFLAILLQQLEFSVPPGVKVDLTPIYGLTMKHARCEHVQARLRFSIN

[9] = biological target: Prothrombin (Homo sapiens, UniProt P00734); assay: Thrombin 1536 HTS Dose Response Confirmation. [Related pubchem assays: 1046 (Thrombin 1536 HTS; hits were confirmed in this assay)]; assay type: functional
[10] = Vero cell cytotoxicity, dose response, cytotoxicity control for Vif-APOBEC3G degradation inhibitor project, Vero cells (AID 1117358); assay type: functional; settings: Human immunodeficiency virus 1, Vero
[11] = biological target: T3, Mannose-6-phosphate isomerase (Homo sapiens, UniProt P34949); assay: human PMI inhibitors, high substrate, primary screen, biochemical, fluorescence intensity, high mannose 6-phosphate (AID 1220)
T3 sequence (P34949 whole entry): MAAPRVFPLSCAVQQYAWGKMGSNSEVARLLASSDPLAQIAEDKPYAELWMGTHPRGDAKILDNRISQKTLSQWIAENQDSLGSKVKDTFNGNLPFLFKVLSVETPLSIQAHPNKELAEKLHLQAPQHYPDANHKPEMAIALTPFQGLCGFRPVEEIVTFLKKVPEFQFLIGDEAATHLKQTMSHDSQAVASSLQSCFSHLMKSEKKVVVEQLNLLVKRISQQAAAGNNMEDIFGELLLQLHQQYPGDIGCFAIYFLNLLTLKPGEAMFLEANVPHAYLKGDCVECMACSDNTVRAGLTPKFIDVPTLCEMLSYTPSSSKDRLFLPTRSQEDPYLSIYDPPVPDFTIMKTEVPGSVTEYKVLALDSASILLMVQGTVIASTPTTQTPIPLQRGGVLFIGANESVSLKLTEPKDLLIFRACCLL

[12] = test system: BJ; assay: cytotoxicity toward BJ-TERT fibroblasts, dose response, cell-based, RAS-independent, luminescence (AID 1933); assay type: functional; settings: Homo sapiens
[13] = test system: BJ; assay: cells; assay type: functional, cell-based; settings: Homo sapiens
[14] = test system: BJ; assay: cytotoxicity toward BJ-TERT-LT-ST fibroblasts, dose response, cell-based, RAS-independent, luminescence (AID 1935); assay type: functional; settings: Homo sapiens;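 note: BJ fibroblasts immortalized with TERT plus LT and ST oncogenes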
[15] = cytotoxicity toward DRD oncogenic fibroblasts, dose response, cell-based, non-viral oncogenic, luminescence (AID 1934); assay type: functional; settings: Homo sapiens
[16] = test system: BJ; assay: cytotoxicity toward Ras-transformed BJeLR fibroblasts, dose response, cell-based, alamar blue fluorescence, cherrypicked samples (AID 2631); assay type: functional; settings: Homo sapiens;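 note: confirmatory dose-response assay in RAS-dependent BJ fibroblasts engineered with TERT, LT and ST, with cytotoxicity read by fluorescence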
[17] = test system: INS1; assay: beta cell apoptosis inhibitors, cytokine rescue, dose response, luminescence, retest (AID 449756); assay type: functional, cell-based; settings: Rattus norvegicus;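 note: cell death triggered by IL-1 beta plus TNF-alpha plus IFN-gamma mixture; protective hits raise ATP signal compared with cytokine alone wells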
[18] = biological target: Paired box protein Pax-8 (Homo sapiens, UniProt Q06710); assay: inhibitors of PAX8-driven TPO luciferase reporter, dose response, RMG-I cells, cherry-pick (AID 687027); assay type: functional, cell-based;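 note: luciferase reporter driven by Pax8 target thyroperoxidase promoter measured by SteadyGlo luminescence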
Chain of Paired box protein Pax-8 (Q06710 whole entry): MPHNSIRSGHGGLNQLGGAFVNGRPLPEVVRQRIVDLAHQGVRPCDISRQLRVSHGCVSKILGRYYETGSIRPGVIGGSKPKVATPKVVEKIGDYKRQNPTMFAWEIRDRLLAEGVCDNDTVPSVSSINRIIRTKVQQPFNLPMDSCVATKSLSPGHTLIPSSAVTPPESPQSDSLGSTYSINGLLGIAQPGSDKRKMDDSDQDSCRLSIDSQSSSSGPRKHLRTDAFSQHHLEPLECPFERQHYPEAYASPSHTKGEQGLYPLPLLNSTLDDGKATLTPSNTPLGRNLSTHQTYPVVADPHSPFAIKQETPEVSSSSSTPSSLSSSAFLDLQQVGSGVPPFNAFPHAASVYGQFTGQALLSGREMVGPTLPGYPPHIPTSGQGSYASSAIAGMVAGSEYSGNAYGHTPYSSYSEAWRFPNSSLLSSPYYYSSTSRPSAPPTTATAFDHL

[19] = biological target: Cytochrome P450 2C9 (Homo sapiens, UniProt P11712)
Chain of Cytochrome P450 2C9 (P11712 whole entry): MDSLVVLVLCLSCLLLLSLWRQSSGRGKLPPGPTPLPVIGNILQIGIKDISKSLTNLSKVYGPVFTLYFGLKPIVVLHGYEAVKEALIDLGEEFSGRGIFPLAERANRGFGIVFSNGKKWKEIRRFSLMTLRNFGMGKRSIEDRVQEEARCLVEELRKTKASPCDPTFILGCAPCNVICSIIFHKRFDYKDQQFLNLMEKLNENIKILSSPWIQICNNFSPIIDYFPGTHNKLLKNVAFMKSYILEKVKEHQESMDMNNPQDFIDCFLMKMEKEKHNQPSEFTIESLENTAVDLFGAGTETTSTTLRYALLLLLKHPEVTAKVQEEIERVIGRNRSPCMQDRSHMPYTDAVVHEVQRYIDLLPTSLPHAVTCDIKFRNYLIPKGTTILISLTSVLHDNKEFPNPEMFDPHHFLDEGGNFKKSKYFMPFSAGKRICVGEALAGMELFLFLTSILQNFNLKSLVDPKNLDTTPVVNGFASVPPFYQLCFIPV

[20] = cytotoxicity in HPDE-C7 cells, cell-based, fluorescence, HTS (AID 430); assay type: functional; settings: Homo sapiens
[21] = cytotoxicity in KRAS-transformed pancreatic duct cells, primary screen, cell-based, fluorescence, HTS (AID 431); assay type: functional; settings: Homo sapiens;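 note: cell line used: HPDE-C7K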
[22] = cells; assay type: functional
[23] = biological target: T4, Heat shock factor protein 1 (Mus musculus, UniProt P38532); assay: inhibition of MG132-induced HSE-luciferase signal, confirmation, cell-based, NIH3T3, luminescence, dose retest (AID 2382); assay type: functional;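 note: NIH3T3 fibroblasts with HSF1-driven luciferase reporter stressed by proteasome inhibitor MG132; luminescence from HSF1-driven luciferase expression after 8 hours of MG132 stress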
T4 sequence (P38532 whole entry): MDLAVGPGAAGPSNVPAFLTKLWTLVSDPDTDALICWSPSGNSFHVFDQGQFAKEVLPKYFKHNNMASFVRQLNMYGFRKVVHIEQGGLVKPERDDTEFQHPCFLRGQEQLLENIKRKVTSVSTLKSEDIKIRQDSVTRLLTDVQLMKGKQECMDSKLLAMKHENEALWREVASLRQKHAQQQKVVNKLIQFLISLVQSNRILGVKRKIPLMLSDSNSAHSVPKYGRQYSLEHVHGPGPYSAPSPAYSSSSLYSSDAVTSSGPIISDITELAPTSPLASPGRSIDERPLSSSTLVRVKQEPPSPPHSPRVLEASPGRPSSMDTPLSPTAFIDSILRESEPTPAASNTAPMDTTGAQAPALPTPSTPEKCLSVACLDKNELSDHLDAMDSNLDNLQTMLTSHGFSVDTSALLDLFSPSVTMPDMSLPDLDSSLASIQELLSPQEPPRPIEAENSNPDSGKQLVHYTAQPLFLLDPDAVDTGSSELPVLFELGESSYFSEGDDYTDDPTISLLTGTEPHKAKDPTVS

[24] = test system: HEK293; assay: inhibitors of LMP1-driven NF-kB reporter, dose response, cell-based, HEK293, luciferase, cherry-pick (AID 588343); assay type: functional; settings: Homo sapiens
[25] = LGR2 antagonists, dose response, cell-based, HEK293, CRE-luciferase reporter, cherry pick, set 2 (AID 743343); assay type: functional;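 note: transfected cells were stimulated with diluted bursicon conditioned medium after compound addition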
[26] = MC4R antagonists, dose response, counter-screen for LGR2 antagonist project, cell-based, plate reader, cherry pick (AID 743444); assay type: functional;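 note: transfected HEK 293 cells stimulated with alpha-MSH peptide; potency of inhibitors of the alpha-MSH evoked signal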
[27] = A Cell Based Secondary Assay To Explore Cytotoxicity of Compounds that Sensitize Mycobacterium Tuberculosis to Beta-Lactam Antibiotics.; assay type: functional

Chain of Luciferin 4-monooxygenase (P08659 whole entry): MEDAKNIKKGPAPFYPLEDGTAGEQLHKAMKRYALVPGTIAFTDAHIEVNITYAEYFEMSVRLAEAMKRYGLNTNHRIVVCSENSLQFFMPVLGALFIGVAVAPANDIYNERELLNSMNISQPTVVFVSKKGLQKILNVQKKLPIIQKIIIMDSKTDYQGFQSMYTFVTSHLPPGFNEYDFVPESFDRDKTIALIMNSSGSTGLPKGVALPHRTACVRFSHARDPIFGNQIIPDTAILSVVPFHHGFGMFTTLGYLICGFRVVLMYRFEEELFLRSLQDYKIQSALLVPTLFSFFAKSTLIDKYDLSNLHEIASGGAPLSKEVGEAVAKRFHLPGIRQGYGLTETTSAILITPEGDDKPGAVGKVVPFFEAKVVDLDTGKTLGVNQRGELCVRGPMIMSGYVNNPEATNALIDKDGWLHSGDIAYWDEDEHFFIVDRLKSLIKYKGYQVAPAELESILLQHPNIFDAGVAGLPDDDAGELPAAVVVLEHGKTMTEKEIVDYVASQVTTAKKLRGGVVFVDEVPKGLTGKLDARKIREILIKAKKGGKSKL

## COc1cccc(CN2CCN(C(=O)COc3ccc4ccccc4c3)CC2)c1
[1]
  EC50: > 112 µM (not active)
[2]
  EC50: > 112 µM (not active)
[3]
  IC50: > 80 µM (inactive)

## O=C1C(Cl)=C(Cl)C(=O)N1c1ccccc1Cl
[4]
  IC50: > 100 µM (not active)
[5]
  IC50: 3.64 µM (active)
[6]
  IC50: 10.2 µM (active)

## O=C1C(Cl)=C(N2CCN(c3ccc(Cl)c(Cl)c3)CC2)C(=O)N1c1ccc(Cl)c(Cl)c1
[4]
  IC50: > 100 µM (not active)
[5]
  IC50: 65.5 µM (active)
[6]
  IC50: > 100 µM (not active)

## CSC1=C(C#N)C(c2ccccc2Cl)C2=C(O)c3ccccc3C2=N1 (centres undefined)
[7]
  AC50: inconclusive

## O=C(/C=C/c1ccccc1)N1CCN(Cc2nc(O)c3ccccc3n2)CC1
[3]
  IC50: > 80 µM (inactive)
[8]
  AC50: 31.6 µM (inconclusive)

## CCCCc1c(C)nc2ccc(Br)cc2c1SCCC#N
[9]
  IC50: > 50 µM (not active)
[10]
  CC50: 16.3 µM (active)

## Oc1c(CN2CCOCC2)ccc2ccccc12
[11]
  IC50: > 50 µM (not active)

## FC(F)(F)c1nnc2c(Sc3ccccc3)nc3ccc(Cl)cc3n12
[12]
  EC50: 1.8 µM (inconclusive)
[13]
  EC50: 23.4 µM (active)
[14]
  EC50: 3.65 µM (active)
[15]
  EC50: 4.19 µM (active)
[16]
  EC50: 0.599 µM (active)
[17]
  AC50: 7.41 µM (active)
[18]
  AC50: 1.52 µM (active)
[19]
  AC50: 8.91 µM (inconclusive)
[7]
  AC50: inconclusive

## CC(C)(C)c1cc(CN2CCCC(O)C2)c(O)c(C(C)(C)C)c1 (centres undefined)
[20]
  EC50: 15.5 µM (active)
[21]
  EC50: 14.9 µM (active)

## Cc1cccc(NCCC(=O)c2ccc([N+](=O)[O-])cc2)c1C
[11]
  IC50: > 50 µM (not active)
[22]
  IC50: 18 µM (active)

## Cc1cc(NC(=O)CCNS(=O)(=O)c2cc(Br)cnc2N)ccc1Br
[10]
  CC50: > 40 µM (active)

## O=C(O)c1cccc(Nc2ccnc(Nc3cccc(C(=O)O)c3)n2)c1
[23]
  EC50: 0.281 µM (active)
[24]
  AC50: 3.56 µM (active)
[25]
  AC50: 2.9 µM (active)
[26]
  AC50: 2.56 µM (active)

## COc1ccc(-n2cc(-c3ccccc3)c3c(NN4CCOCC4)ncnc32)cc1
[27]
  CC50: > 40 µM (active)
